Test: Antiproliferative activity against mouse EAC cells assessed as ratio of ID50 of compound to ID50 of 8-methoxypsoralen
Type: functional, Ehrlich

Q: With COc1c2oc(=O)c(C)cc2cc2c(C)coc12 as the molecule, how does the Ratio read?
A: The Ratio was 0.89.

Q: Which Ratio does the source give for Cc1oc2cc3oc(=O)ccc3cc2c1C here?
A: Its Ratio is 1.26.

Q: For Cc1cc2cc3c(C)coc3c(C)c2oc1=O, which Ratio is on record?
A: Its Ratio is 1.34.

Q: With Cc1oc2cc3oc(=O)c(C)cc3cc2c1C as the molecule, how does the Ratio read?
A: Its Ratio is 1.79.

Q: For Cc1oc2ccc3ccc(=O)oc3c2c1C, which Ratio is on record?
A: Its Ratio is 1.47.

Q: With Cc1cc2cc3c(C)coc3cc2oc1=O as the molecule, how does the Ratio read?
A: Its Ratio is 1.01.

Q: Which Ratio does the source give for Cc1cc(=O)oc2nc3occc3cc12 here?
A: The Ratio was 0.14.

Q: Which Ratio does the source give for Cc1oc2nc3oc(=O)ccc3cc2c1C here?
A: Its Ratio is 0.18.

Q: With Cc1coc2nc3oc(=O)ccc3cc12 as the molecule, how does the Ratio read?
A: The Ratio was 0.13.

Q: For Cc1c(C)c2cc3c(C)coc3cc2oc1=O, which Ratio is on record?
A: Its Ratio is 0.34.

Q: Which Ratio does the source give for COCc1cc(=O)n(C)c2c1cc(C)c1oc(C)cc12 here?
A: Its Ratio is 2.09.

Q: With Cc1cc(=O)[nH]c2c1cc(C)c1occ(C)c12 as the molecule, how does the Ratio read?
A: Its Ratio is 4.62.

Q: Which Ratio does the source give for O=C(c1cc2ccc3occc3c2oc1=O)N(CCO)CCO here?
A: The Ratio was <0.01.

Q: For CN1CCN(C(=O)c2cc3ccc4occc4c3oc2=O)CC1, which Ratio is on record?
A: Its Ratio is <0.01.

Q: For O=C(c1ccccc1)c1cc2ccc3occc3c2oc1=O, which Ratio is on record?
A: Its Ratio is <0.01.

Q: For CCN(CC)C(=O)c1cc2ccc3occc3c2oc1=O, which Ratio is on record?
A: Its Ratio is <0.01.

Q: With O=C(NCCO)c1cc2ccc3occc3c2oc1=O as the molecule, how does the Ratio read?
A: Its Ratio is <0.01.

Q: With CCOCCNC(=O)c1cc2ccc3occc3c2oc1=O as the molecule, how does the Ratio read?
A: Its Ratio is <0.01.

Q: With CN(C)CCNC(=O)c1cc2ccc3occc3c2oc1=O as the molecule, how does the Ratio read?
A: The Ratio was <0.01.

Q: With NC(=O)c1cc2ccc3occc3c2oc1=O as the molecule, how does the Ratio read?
A: The Ratio was 0.05.

Q: Which Ratio does the source give for O=C(c1cc2ccc3occc3c2oc1=O)N1CCOCC1 here?
A: Its Ratio is 0.06.

Q: With O=C(O)c1cc2ccc3occc3c2oc1=O as the molecule, how does the Ratio read?
A: Its Ratio is 0.07.

Q: With CN(C)C(=O)c1cc2ccc3occc3c2oc1=O as the molecule, how does the Ratio read?
A: Its Ratio is 0.07.

Q: With COC(=O)c1cc2ccc3occc3c2oc1=O as the molecule, how does the Ratio read?
A: The Ratio was 0.2.

Q: Which Ratio does the source give for Cc1cc(=O)oc2c1c(C)cc1occ(C)c12 here?
A: Its Ratio is 5.78.

Q: For Cc1cc(=O)[nH]c2c1ccc1occ(C)c12, which Ratio is on record?
A: The Ratio was 0.48.

Q: For Cc1oc2nc3oc(=O)ccc3c(C)c2c1C, which Ratio is on record?
A: Its Ratio is 0.25.

Q: For Cc1c(C)c2cc3c(C)coc3nc2oc1=O, which Ratio is on record?
A: The Ratio was 0.67.

Q: Which Ratio does the source give for Cc1coc2nc3oc(=O)cc(C)c3cc12 here?
A: Its Ratio is 0.68.

Q: Which Ratio does the source give for Cc1coc2nc3oc(=O)ccc3c(C)c12 here?
A: Its Ratio is 0.97.

Q: Which Ratio does the source give for Cc1oc2nc3oc(=O)c(C)c(C)c3cc2c1C here?
A: The Ratio was 1.83.

Q: With Cc1cc2ccc3occc3c2oc1=O as the molecule, how does the Ratio read?
A: Its Ratio is 0.2.

Q: Which Ratio does the source give for Cc1c(C)c2ccc3occ(C)c3c2oc1=O here?
A: Its Ratio is 0.03.

Q: For Cc1c(C)c2ccc3occc3c2oc1=O, which Ratio is on record?
A: The Ratio was 0.35.

Q: With CCOC(=O)c1cc2ccc3occc3c2oc1=O as the molecule, how does the Ratio read?
A: The Ratio was 0.4.

Q: Which Ratio does the source give for Cc1cc2c(o1)c(C)cc1c(CO)cc(=O)[nH]c12 here?
A: The Ratio was 0.66.

Q: For Cc1cc(=O)[nH]c2c1cc(C)c1oc(CO)c(C)c12, which Ratio is on record?
A: Its Ratio is 1.07.

Q: With Cc1cc2c(o1)c(C)cc1c(C)cc(=O)[nH]c12 as the molecule, how does the Ratio read?
A: The Ratio was 1.36.

Q: With Cc1oc2nc3oc(=O)cc(C)c3cc2c1C as the molecule, how does the Ratio read?
A: Its Ratio is 3.66.

Q: With CC(=O)c1cc2ccc3occc3c2oc1=O as the molecule, how does the Ratio read?
A: Its Ratio is <0.01.

Q: For COCc1c(C)oc2ccc3c(C)cc(=O)oc3c12, which Ratio is on record?
A: The Ratio was 0.6.

Q: With Cc1coc2cc3oc(=O)cc(CO)c3cc12 as the molecule, how does the Ratio read?
A: The Ratio was 2.32.

Q: For Cc1cc2c(o1)c(C)cc1c(CO)cc(=O)n(C)c12, which Ratio is on record?
A: Its Ratio is 5.6.

Q: With Cc1cc(=O)oc2c1ccc1occc12 as the molecule, how does the Ratio read?
A: Its Ratio is 0.55.

Q: With Cc1cc2occ(C)c2c2oc(=O)ccc12 as the molecule, how does the Ratio read?
A: The Ratio was 5.3.

Q: Which Ratio does the source give for Cc1cc(=O)oc2c1ccc1occ(C)c12 here?
A: The Ratio was 5.75.

Q: Which Ratio does the source give for Cc1oc2c(C)cc3c(C)cc(=O)[nH]c3c2c1C here?
A: Its Ratio is 9.25.

Q: With Cc1cc2c(ccc3ccc(=O)oc32)o1 as the molecule, how does the Ratio read?
A: The Ratio was 0.8.

Q: With Cc1coc2ccc3ccc(=O)oc3c12 as the molecule, how does the Ratio read?
A: Its Ratio is 0.81.

Q: Which Ratio does the source give for Cc1oc2ccc3c(C)cc(=O)[nH]c3c2c1C here?
A: The Ratio was 2.59.

Q: With Cc1cc2c(ccc3c(C)cc(=O)oc32)o1 as the molecule, how does the Ratio read?
A: Its Ratio is 1.27.

Q: For O=c1ccc2ccc3occc3c2o1 [ANGELICIN], which Ratio is on record?
A: Its Ratio is 0.55.

Q: With COc1c2ccoc2cc2oc(=O)ccc12 [BERGAPTEN] as the molecule, how does the Ratio read?
A: Its Ratio is 0.66.

Q: For COc1c2occc2cc2ccc(=O)oc12 [METHOXSALEN], which Ratio is on record?
A: The Ratio was 1.

Q: With O=c1ccc2cc3ccoc3cc2o1 [PSORALEN] as the molecule, how does the Ratio read?
A: The Ratio was 1.52.

Q: For Cc1cc2cc3c(C)cc(=O)oc3c(C)c2o1 [TRIOXSALEN], which Ratio is on record?
A: The Ratio was 27.6.
